# Assay results as given in article PMC8944975, “Secretin Receptor as a Target in Gastrointestinal Cancer: Expression Analysis and Ligand Development” (Biomedicines, 2022).
# Where a SMILES comes first, the peptide text is derived from it. [ ]: non-standard residue; d: D form.
# Biological target: human SCTR (Homo sapiens, UniProt P47872)
# Assay: β-arr2-GFP translocation assay run in antagonist mode; also: peptide 5 min at 37 °C
# Assay type: cell-based
# Set-up: expressed in transfected cells; host or cells: U2OS (human osteosarcoma), stably co-transfected with β-arrestin2-GFP
# Settings: read-out: IC50, inhibition of β-arr2-GFP translocation (Table 3)
# Source text: U2OS-SCTR/β-arr2-GFP: human osteosarcoma cell line U2OS (purchased from ATCC/LGC Standards, Wesel, Germany) were stably transfected with plasmids encoding SCTR (Homo sapiens) and the fusion protein β-arrestin2-green fluorescent protein (GFP) (Rattus norvegicus-Aequorea victoria) (β-arr2-GFP).
# For analysis of antagonistic effects on SCTR, a slightly modified protocol of the β-arr2-GFP translocation was used. […] For analysis, cells were terminally fixed and permeabilized as previously described. The additional monitoring of IDCC fluorescence in the near-infrared channel (667 nm) provided another measure for receptor binding and activation.
# Sequence of human SCTR (P47872 23-440): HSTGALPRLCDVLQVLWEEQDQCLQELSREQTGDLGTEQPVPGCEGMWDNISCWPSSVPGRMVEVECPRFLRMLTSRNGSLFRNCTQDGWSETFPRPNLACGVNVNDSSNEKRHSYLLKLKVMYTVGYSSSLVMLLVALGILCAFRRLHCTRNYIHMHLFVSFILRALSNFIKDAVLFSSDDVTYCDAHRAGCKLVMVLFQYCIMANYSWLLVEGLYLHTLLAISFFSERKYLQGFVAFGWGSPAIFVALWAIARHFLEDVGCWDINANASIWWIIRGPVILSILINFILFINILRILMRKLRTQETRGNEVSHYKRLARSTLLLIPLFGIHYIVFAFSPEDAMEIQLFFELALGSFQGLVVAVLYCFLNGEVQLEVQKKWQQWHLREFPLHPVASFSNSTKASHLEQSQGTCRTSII
row,Structure (SMILES),IC50
1,CC(C)C[C@H](NC(=O)CNC(=O)[C@H](CCC(N)=O)NC(=O)[C@H](CC(C)C)NC(=O)[C@H](CC(C)C)NC(=O)[C@H](CCCNC(=N)N)NC(=O)[C@H](C)NC(=O)[C@H](CC(C)C)NC(=O)[C@H](CCCNC(=N)N)NC(=O)[C@H](C)NC(=O)CNC(=O)[C@H](CCC(=O)O)NC(=O)[C@H](CCCNC(=N)N)NC(=O)[C@H](CC(C)C)NC(=O)[C@H](CCCNC(=N)N)NC(=O)[C@H](CO)NC(=O)[C@H](CC(C)C)NC(=O)[C@H](CCC(=O)O)NC(=O)[C@H](CO)NC(=O)[C@@H](NC(=O)[C@H](Cc1ccccc1)NC(=O)[C@H](N)CCCNC(=N)N)[C@@H](C)O)C(=O)N[C@H](C(=O)O)C(C)C [Peptide 139] (H-[dR]FTSELSRLREGARLARLLQGLV-OH),1020 ± 107 nM
2,CC(C)C[C@H](NC(=O)CNC(=O)[C@H](CCC(N)=O)NC(=O)[C@H](CC(C)C)NC(=O)[C@H](CC(C)C)NC(=O)[C@H](CCCNC(=N)N)NC(=O)[C@H](CCC(N)=O)NC(=O)[C@H](CC(C)C)NC(=O)[C@H](CCCNC(=N)N)NC(=O)[C@H](C)NC(=O)CNC(=O)[C@H](CCC(=O)O)NC(=O)[C@H](CCCNC(=N)N)NC(=O)[C@H](CC(C)C)NC(=O)[C@H](CCCNC(=N)N)NC(=O)[C@H](CO)NC(=O)[C@H](CC(C)C)NC(=O)[C@H](C)NC(=O)[C@H](CO)NC(=O)[C@@H](NC(=O)[C@H](Cc1ccccc1)NC(=O)[C@H](N)CCCNC(=N)N)[C@@H](C)O)C(=O)N[C@H](C(=O)O)C(C)C [Peptide 129] (H-[dR]FTSALSRLREGARLQRLLQGLV-OH),1140 ± 281 nM
3,CC(C)C[C@H](NC(=O)CNC(=O)[C@H](CCC(N)=O)NC(=O)[C@H](CC(C)C)NC(=O)[C@H](CC(C)C)NC(=O)[C@H](C)NC(=O)[C@H](CCC(N)=O)NC(=O)[C@H](CC(C)C)NC(=O)[C@H](CCCNC(=N)N)NC(=O)[C@H](C)NC(=O)CNC(=O)[C@H](CCC(=O)O)NC(=O)[C@H](CCCNC(=N)N)NC(=O)[C@H](CC(C)C)NC(=O)[C@H](CCCNC(=N)N)NC(=O)[C@H](CO)NC(=O)[C@H](CC(C)C)NC(=O)[C@H](CCC(=O)O)NC(=O)[C@H](CO)NC(=O)[C@@H](NC(=O)[C@H](Cc1ccccc1)NC(=O)[C@H](N)CCCNC(=N)N)[C@@H](C)O)C(=O)N[C@H](C(=O)O)C(C)C [Peptide 140] (H-[dR]FTSELSRLREGARLQALLQGLV-OH),1490 ± 218 nM
4,CC(C)C[C@H](NC(=O)CNC(=O)[C@H](CCC(N)=O)NC(=O)[C@H](CC(C)C)NC(=O)[C@H](CC(C)C)NC(=O)[C@H](CCCNC(=N)N)NC(=O)[C@H](CCC(N)=O)NC(=O)[C@H](CC(C)C)NC(=O)[C@H](CCCNC(=N)N)NC(=O)[C@H](C)NC(=O)CNC(=O)[C@H](CCC(=O)O)NC(=O)[C@H](CCCNC(=N)N)NC(=O)[C@H](CC(C)C)NC(=O)[C@H](CCCNC(=N)N)NC(=O)[C@H](CO)NC(=O)[C@H](CC(C)C)NC(=O)[C@H](CCC(=O)O)NC(=O)[C@H](CO)NC(=O)[C@H](C)NC(=O)[C@H](Cc1ccccc1)NC(=O)[C@H](N)CCCNC(=N)N)C(=O)N[C@H](C(=O)O)C(C)C [Peptide 127],1610 ± 185 nM
5,CC(C)C[C@H](NC(=O)CNC(=O)[C@H](CCC(N)=O)NC(=O)[C@H](CC(C)C)NC(=O)[C@H](CC(C)C)NC(=O)[C@H](CCCNC(=N)N)NC(=O)[C@H](CCC(N)=O)NC(=O)[C@H](CC(C)C)NC(=O)[C@H](C)NC(=O)[C@H](C)NC(=O)CNC(=O)[C@H](CCC(=O)O)NC(=O)[C@H](CCCNC(=N)N)NC(=O)[C@H](CC(C)C)NC(=O)[C@H](CCCNC(=N)N)NC(=O)[C@H](CO)NC(=O)[C@H](CC(C)C)NC(=O)[C@H](CCC(=O)O)NC(=O)[C@H](CO)NC(=O)[C@@H](NC(=O)[C@H](Cc1ccccc1)NC(=O)[C@H](N)CCCNC(=N)N)[C@@H](C)O)C(=O)N[C@H](C(=O)O)C(C)C [Peptide 137] (H-[dR]FTSELSRLREGAALQRLLQGLV-OH),1860 ± 159 nM
